Data from patent publication US10864179B2, “Histone deacetylase inhibitors for the use in the treatment of drug resistant melanoma” (STICHTING HET NEDERLANDS KANKER INSTITUUT-ANTONI VAN …, priority 2015, dated 2020).
Entries after “also recorded” stand apart in the source; their conditions may differ.

Columns and labels:
[1] = test system: A375R cells; assay: Long-term colony formation assay, vemurafenib-resistant A375R cells; settings: for sensitivity of cells in proliferation assay, HDACi panel: Vorinostat 1 uM, 01994 4 uM, AR2 0.5 uM, Pracinostat 0.25 uM, Quisinostat 25 nM, 8 day
Procedure: Long-term colony formation assay of melanoma (A375 and A375R clone) cells. […] Cells were fixed and stained at day 12. […] Long-term colony formation assay of melanoma Mel888 parental and vemurafenib-resistant Mel888R cells (three different clones Mel888RC-A, B and C) were seeded at the same cell density in 6-well plates and cultured in presence of vorinostat (1 microM) and/or vemurafenib (2 microM). Cells were fixed and stained at day 10. […] Long-term colony formation assay of melanoma A375 parental and double-resistant cells seeded in 12-well plates and treated with 2 microM vemurafenib and/or 0.5 microM CDX101 (CDX). Medium and drugs were refreshed every 2-3 days. Cells were fixed and stained on day 10.
Medium and drugs were refreshed every 2-3 days. Cells were fixed and stained on day 10
Long-term colony formation assay of A375 parental and MAPKi resistant A375R, A375DR cells treated sulfasalazine and vorinostat. Medium and drugs were refreshed every 2-3 days. Cells were fixed and stained on day 10.
The A375 melanoma cell line was obtained from ATCC. MEL888 were gifts from D. Peeper (Amsterdam, The Netherlands). WM266-4 and Colo741 cell line were provided by R. Marais (Manchester, UK). These cells are BRAF mutated melanoma. All the cell lines were cultured in DMEM medium supplemented with 10% FBS, 1% penicillin/streptomycin and 2 mM I-glutamine. Vemurafenib-resistant A375 and MEL888 cells were generated by long term (at least 3 months) culturing with 2 microM vemurafenib. Dabrafenib-Trametinib combination resistant A375 cells were generated by long term (at least 3 months) culturing with 0.25 microM Dabrafenib and 10 nM Trametinib (MEK inhibitor). Vemurafenib-resistant ex-vivo clones were isolated from immunodeficient BalbC mice, which were long-term treated with PLX4720-chow (50 mg/kg). All the in vitro cell lines have been STR profiled.
Cells were seeded into 6-well plates (5*10^4˜1*10^5 cells per well) or 12-well plates (4*10^4 cells per well) and cultured both in the absence and presence of drugs as indicated.

[2] = test system: A375 melanoma cells; assay: Long-term colony formation assay, A375 cells; format: cell-based, human; settings: for effect of HDACi on the anti-proliferative effect of vemurafenib: HDACi together with vemurafenib; for proliferation in long-term colony formation assay: drug(s) without HDACi/BRAFi partner; for effect of HDACi on dabrafenib, trametinib and their combination: FIG. 3
Source text: (§1) FIG. 1. BRAF inhibition is antagonized by HDAC inhibition in melanoma. A). […] The cells were fixed and stained at day 14. B). Short-term proliferation assay of melanoma (A375) cells. […] Error bars represent s.d. of biological triplicates. C,D). HDAC inhibitors and vemurafenib have antagonistic effects on MAPK pathway and HDAC inhibitors can rescue cells from vemurafenib-induced apoptosis. A375 were pre-treated with 1 microM vorinostat and 1 microM entinostat for 48 hrs and then treated with the combination of HDAC inhibitor (1 microM) and vemurafenib (1 microM) for additional 24 hrs. The levels of p-RB, p-MEK, MEK, cleaved PARP (cl. PARP) and ac-H3 were detected by western blot. β-actin served as the loading control.
(§2) FIG. 2. Other HDACi also confer resistance to vemurafenib. […] B).
(§3) FIG. 3. HDACi confers resistance to the combination of a MEK and a BRAF inhibitor in melanoma. A,B,C).

[3] = test system: MEL888RC-A, B and C cells; assay: Long-term colony formation assay, vemurafenib-resistant MEL888 clones; format: cell-based; settings: vorinostat 1 microM, CXD101 0.5 microM
Source text: FIG. 5. […] Cells were fixed and stained on day 8.
(§4) These cells are BRAF mutated melanoma.

[4] = test system: A375DR cells; assay: Long-term colony formation assay, dabrafenib/trametinib double-resistant A375DR cells; format: cell-based, human
Source text: as §4

[5] = test system: NRAS-mutant melanoma patients; settings: phase II; cited from earlier work
[6] = test system: SK-MEL-147R cells; assay: Long-term colony formation assay, MEKi-resistant SK-MEL-147R cells; format: cell-based, human
Procedure: (a). Long-term colony formation assay of SK-MEL-147 and MEKi-resistant SK-MEL-147R cells cultured in the presence of 1 μM vorinostat and/or 100 nM Trametinib.
(b). Long-term colony formation assay of SK-MEL-147 and SK-MEL-147R cells cultured in the presence of indicated concentrations of vorinostat and/or 5 mM NAC.
(§5) The A375, SK-Mel-147 and SK-Mel-2 melanoma cell lines were obtained from ATCC. […] Trametinib resistant SK-mel-147 and SK-mel-2 were generated by long term culturing with 25 nM (first month), 50 nM (second month) and 100 nM (third month) trametinib.
(§6) For full details, see ref. (Huang et al., 2009).

[7] = test system: SK-MEL-2R cells; assay: Long-term colony formation assay, MEKi-resistant SK-MEL-2R cells; format: cell-based, human; settings: 5 mM NAC
Procedure: (i). Long-term colony formation assay of SK-MEL-2 and MEKi-resistant SK-MEL-2R cells cultured in the presence of 1 μM vorinostat and/or 100 nM Trametinib.
(j) Long-term colony formation assay of SK-MEL-2 and SK-MEL-2R cells cultured in the presence of indicated concentrations of vorinostat and/or 5 mM NAC.
as §5, §6

[8] = test system: A375 melanoma tumor xenografts; assay: A375 mouse xenografts; format: in vivo, BalbC immunodeficient nude mice; settings: for tumor volume of PLX4720-resistant tumors after randomization: PLX4720 300 mg/kg in chow and/or vorinostat 100 mg/kg i.p.
Procedure: FIG. 7. HDACi is effective in treatment of BRAF inhibitor resistant melanoma in vivo. A,B). […] A375 melanoma cells were grown as tumor xenografts in BalbC immunodeficient nude mice. After tumor establishment (150-200 mm3), mice were treated with (A). vehicle, PLX4720 (40 mg/kg supplemented in the chow). Upon development of BRAF inhibitor resistance, mice receiving PLX4720 were randomized in four arms (B) receiving: vehicle, PLX4720 (300 mg/kg supplemented in the chow), Vorinostat (100 mg/kg i.p.) or PLX4720 (300 mg/kg supplemented in the chow) plus Vorinostat (100 mg/kg i.p.). C). Resistance to vemurafenib in A375 cells is mediated through reactivation of MAP kinase pathway. Biochemical responses of A375-resistant ex vivo clones and A375 parental cell line treated with 2 microM vemurafenib were documented by western blot analysis. Cells were harvested at 24 hrs after drug treatment. […] HSP90 served as the loading control. […].
A375 melanoma cells (2×10^6 cells per mouse) were injected subcutaneously into the right posterior flanks of 7-week-old immunodeficient BalbC or NMRI nude female mice (6 mice per group; Janvier Laboratories, The Netherlands). Tumor formation was monitored twice a week, and tumor volume based on caliper measurements was calculated by the modified ellipsoidal formula (tumor volume=½(length×width2)). When tumors reached a volume of approximately 0.3 cm^3, mice were randomized into treatment arms. PLX4720 (Plexxikon) was formulated in the chow by Research Diets dosed at 300 mg/kg and vorinostat was formulated in DMSO/saline solution, and it was dosed at 100 mg per kg daily by intraperitoneal injection. When resistance to PLX4720 arises in the group treated with PLX4720, mice bearing tumors of approximately 0.3 cm^3 were again randomized into the treatment arms with the same drug dosages. Animal experiments were approved by the Animal Ethics Committee of the Netherlands Cancer Institute and performed in accordance with institutional, national and European guidelines for Animal Care and Use.
To investigate whether HDACi treatment is a suitable therapy for MPAK pathway inhibitor resistant melanoma, e.g. BRAF inhibitor resistant melanoma, we injected parental vemurafenib sensitive A375 cells into a cohort of 24 BalbC immunodeficient nude mice. After tumors had reached an average volume of 150-200 mm3, we started treatment with vemurafenib by feeding the animals chow supplemented with 40 mg/kg of PLX4720. […] After that period, tumors began to increase in size, indicative of the development of drug resistance (FIG. 7A). When drug resistant tumors in the mice had reached a size of 800 mm3, mice were randomized to four cohorts that were treated either with:
A) no drug; B) PLX4270; C) PLX4270 and vorinostat; D) Vorinostat.

[9] = test system: 4397A, 4397B, 4393R and 4393L cells; assay: Long-term colony formation assay, ex vivo PLX4720-resistant A375 clones; format: cell-based, human; settings: four cell lines with in vivo acquired PLX4720 resistance
Source text: FIG. 8. In vitro and ex vivo BRAF inhibitor-resistant clones are hypersensitive to HDACi.
We explanted four PLX4720 resistant tumors from mice immediately after acquisition of PLX4720 resistance in vivo and continued to culture these cells in vitro in the presence of BRAF inhibitor. These cells were designated 4397A, 4397B, 4393R and 4393L.

[10] = test system: Colo741 melanoma cells; assay: Long-term colony formation assay, Colo741 cells; format: cell-based; settings: for effect of HDACi on dabrafenib, trametinib and their combination: FIG. 3
Source text: as §2, §3

[11] = test system: p-MEK in A375 cells; assay: Western blot of MAPK pathway and apoptosis markers, A375 cells; format: cell-based, human; settings: single drug
Source text: as §1
FIG. 7. HDACi is effective in treatment of BRAF inhibitor resistant melanoma in vivo. A,B). […] A375 melanoma cells were grown as tumor xenografts in BalbC immunodeficient nude mice. After tumor establishment (150-200 mm3), mice were treated with (A). vehicle, PLX4720 (40 mg/kg supplemented in the chow). Upon development of BRAF inhibitor resistance, mice receiving PLX4720 were randomized in four arms (B) receiving: vehicle, PLX4720 (300 mg/kg supplemented in the chow), Vorinostat (100 mg/kg i.p.) or PLX4720 (300 mg/kg supplemented in the chow) plus Vorinostat (100 mg/kg i.p.). C). Resistance to vemurafenib in A375 cells is mediated through reactivation of MAP kinase pathway. […]

[12] = test system: A375 melanoma cells; assay: Short-term proliferation assay (IncuCyte), A375 cells; format: cell-based, human; settings: each drug alone, 1 microM
Source text: as §1

[13] = test system: A375 cells; assay: Staining of beta-galactosidase activity; format: cell-based, human
Source text: β-galactosidase activity in cells was detected using Histochemical Staining Kit (CS0030-1KT) from Sigma-Aldrich. The detection was applied according to the manufacturer's instructions.

[14] = test system: p-MEK in WM2664 melanoma cells; assay: Western blot of p-MEK, WM2664 cells; format: cell-based; settings: single drug
Procedure: Cells were seeded in medium containing 10% fetal bovine serum (FBS) for indicated time, and then washed with PBS and lysed with RIPA buffer supplemented with protease inhibitor (cOmplete, Roche) and Phosphatase Inhibitor Cocktails II and III (Sigma). All lysates were freshly prepared and processed with Novex NuPAGE Gel Electrophoresis Systems (Invitrogen).

[15] = test system: XCT (SLC7A11) mRNA; assay: qRT-PCR of SLC7A11 in SK-MEL-147 and SK-MEL-147R cells; settings: 72 hours vorinostat treatment
Procedure: The relative mRNA levels were detected by qRT-PCR analysis after 72 hours vorinostat treatment. Error bars represent s.d. of measurement replicates (n=3, *** p<0.001, Student's t-test).
RNA isolation from cell lines harvested with TRIzol reagent (Invitrogen) according to the manufacturer's instruction. cDNA synthesis was performed with Maxima Universal First Strand cDNA Synthesis Kit (# K1661, Thermo scientific) according to manufacturer's instruction.

CC(C)[C@H](C(=O)Nc1ccc(C(=O)NO)cc1)c1ccccc1 [AR2]
sensitivity of cells in proliferation assay, HDACi panel ([1]; A375R cells): very sensitive

Cc1nn(C)cc1CN1CCC(c2ccc(C(=O)Nc3ccccc3N)cc2)CC1 [CXD101]
effect of HDACi on the anti-proliferative effect of vemurafenib [2]: conferred resistance to vemurafenib
proliferation in long-term colony formation assay [2]: mildly anti-proliferative
sensitivity of cells in long-term colony formation assay [3]: hypersensitive
sensitivity of cells in long-term colony formation assay ([4]; 0.5 microM CDX101): very sensitive
sensitivity of cells in long-term colony formation assay ([4]; 0.5 microM CDX101, listed as CDX101): hypersensitive

Cn1cnc2c(F)c(Nc3ccc(Br)cc3F)c(C(=O)NOCCO)cc21 [MEK162]
patients with objective responses [5]: 20%
patients with stable disease [5]: 43%

CC(=O)N[C@@H](CS)C(=O)O [NAC, N-acetyl-L-cysteine]
effect on the toxic effect of vorinostat ([6]; SK-MEL-147R cells, 5 mM NAC): rescued
effect on the toxic effects of vorinostat [7]: countered, at least in part

CCCS(=O)(=O)Nc1ccc(F)c(C(=O)c2c[nH]c3ncc(Cl)cc23)c1F [PLX4720]
tumor volume of PLX4720-resistant tumors after randomization [8]: continued tumor volume increase
period of tumor growth suppression before resistance ([8]; chow supplemented with 40 mg/kg of PLX4720): around 3 months
tumor growth ([8]; chow supplemented with 40 mg/kg of PLX4720, start at 150-200 mm3): significant suppression of tumor growth

CCCCc1nc2cc(/C=C/C(=O)NO)ccc2n1CCN(CC)CC [Pracinostat]
sensitivity of cells in proliferation assay, HDACi panel ([1]; A375R cells): very sensitive

Cn1cc(CNCC2CCN(c3ncc(C(=O)NO)cn3)CC2)c2ccccc21 [Quisinostat]
sensitivity of cells in proliferation assay, HDACi panel ([1]; A375R cells): very sensitive

O=C(/C=C/c1cccc(S(=O)(=O)Nc2ccccc2)c1)NO [belinostat]
effect of HDACi on the anti-proliferative effect of vemurafenib [2]: conferred resistance to vemurafenib
proliferation in long-term colony formation assay [2]: mildly anti-proliferative
sensitivity of cells to HDACi [9]: very sensitive

CC(C)(C)c1nc(-c2cccc(NS(=O)(=O)c3c(F)cccc3F)c2F)c(-c2ccnc(N)n2)s1 [dabrafenib]
proliferation in long-term colony formation assay [2]: effective in limiting proliferation
proliferation in long-term colony formation assay ([10]; MAPK pathway inhibitor(s) without HDACi): effective in limiting proliferation

Nc1ccccc1NC(=O)c1ccc(CNC(=O)OCc2cccnc2)cc1 [entinostat]
effect of HDACi on dabrafenib, trametinib and their combination [2]: able to confer resistance to these drugs
p-MEK levels [11]: increases p-MEK levels
effect of HDACi on dabrafenib, trametinib and their combination [10]: able to confer resistance to these drugs
sensitivity of cells in long-term colony formation assay [3]: hypersensitive

O=C(O)c1cc(/N=N/c2ccc(S(=O)(=O)Nc3ccccn3)cc2)ccc1O [sulfasalazine]
toxicity in long-term colony formation assay ([4]; sulfasalazine 0.2 to 0.4 mM): toxic
toxicity in long-term colony formation assay ([1]; A375R cells, sulfasalazine 0.2 to 0.4 mM): toxic

O=C(CCCCCCC(=O)Nc1ccccc1)NO [vorinostat]
effect of HDACi on dabrafenib, trametinib and their combination [2]: able to confer resistance to these drugs
effect of HDACi on the anti-proliferative effect of vemurafenib [2]: almost completely negated the anti-proliferative effects of vemurafenib
proliferation in long-term colony formation assay [2]: inhibition of proliferation
cell proliferation (cell confluence, IncuCyte) [12]: restricted cell proliferation
acidic beta-galactosidase (senescence marker) [13]: induction of acidic beta-galactosidase
p-MEK levels [14]: increase in phospho-MEK (p-MEK)
effect of HDACi on dabrafenib, trametinib and their combination [10]: able to confer resistance to these drugs
effect of HDACi on the anti-proliferative effect of vemurafenib ([10]; HDACi together with vemurafenib): conferred resistance to vemurafenib
tumor volume of PLX4720-resistant tumors after randomization [8]: rapid decline in tumor volume; also recorded: complete disappearance of the tumors after two months; also recorded: suppress melanoma growth
sensitivity of cells to HDACi [9]: very sensitive
sensitivity of cells in long-term colony formation assay ([6]; SK-MEL-147R versus parental SK-MEL-147, 1 μM vorinostat, 100 nM Trametinib): acquired significant sensitivity
XCT (SLC7A11) mRNA expression [15]: reduced XCT (also known as SLC7A11) mRNA expression; also recorded: suppressed SLC7A11 expression
sensitivity of cells in long-term colony formation assay ([1]; A375R cells versus parental A375, vorinostat 1 microM, vemurafenib 2 microM): far more sensitive to vorinostat than parental A375 cells; also recorded: massive inhibition of proliferation; also recorded: hypersensitive
sensitivity of cells in proliferation assay, HDACi panel ([1]; A375R cells): very sensitive
